Measured values published in paper PMC2778273 (Biochimica et biophysica acta, 2008).
In brackets after ≈: the same amount, converted by molar mass.

Target: Clitocybe nebularis lectin (CNL) (Clitocybe nebularis, UniProt B2ZRS9)
Experiment: hemagglutination inhibition assay, human group A erythrocytes
Details: CNL 18.6 µg/ml; 20 mM Tris/HCl, 130 mM NaCl, pH 7.5; room temperature

Clitocybe nebularis lectin (CNL), sequence (B2ZRS9 2-149): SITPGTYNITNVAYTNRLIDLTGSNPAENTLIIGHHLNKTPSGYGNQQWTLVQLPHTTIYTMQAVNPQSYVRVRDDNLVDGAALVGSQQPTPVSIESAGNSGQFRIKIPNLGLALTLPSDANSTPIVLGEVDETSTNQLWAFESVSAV

SMILES: OC[C@H]1O[C@@H](O[C@H]2[C@H](O)[C@@H](O)C(O)O[C@@H]2CO)[C@H](O)[C@@H](O)[C@H]1O (stereo partly shown) [lactose]
- minimum inhibitory concentration: 4.65 mM (≈ 1590 µg/mL)
